Tested on: MV-4-11 cells
Assay: Gene expression microarray analysis (Affymetrix PrimeView) and GSEA
Type: cell-based, human
Set-up: RFU PODN (11730768_x_at) / Fold change /veh PODN (11730768_x_at) / RFU LINC00158 (11744669_a_at) / Fold change /veh LINC00158 (11744669_a_at) / RFU DUSP10 (11751237_a_at) / Fold change /veh DUSP10 (11751237_a_at) / RFU ID3 (11757404_x_at) / Fold change /veh ID3 (11757404_x_at) / RFU PLEKHG5 (11737974_s_at) / Fold change /veh PLEKHG5 (11737974_s_at) / RFU LRRC4B (11730491_at) / Fold change /veh LRRC4B (11730491_at) / RFU GIMAP4 (11747438_a_at) / Fold change /veh GIMAP4 (11747438_a_at) / RFU KRT8 (11758183_x_at) / Fold change /veh KRT8 (11758183_x_at) / RFU CNN1 (11734310_a_at) / Fold change /veh CNN1 (11734310_a_at) / RFU VPS37D (11726825_at) / Fold change /veh VPS37D (11726825_at) / RFU C10orf10 (11716522_x_at) / Fold change /veh C10orf10 (11716522_x_at) / RFU KIR2DL2 /// KIR2DL4 /// KIR2DL5A /// KIR2DL5B /// KIR2DS1 /// KIR2DS2 /// KIR2DS3 /// KIR2DS4 /// KIR3DL3 /// KIR3DL3 /// KIR3DS1 (11738374_at) / Fold change /veh KIR2DL2 /// KIR2DL4 /// KIR2DL5A /// KIR2DL5B /// KIR2DS1 /// KIR2DS2 /// KIR2DS3 /// KIR2DS4 /// KIR3DL3 /// KIR3DL3 /// KIR3DS1 (11738374_at) / RFU C1QL1 (11718748_at) / Fold change /veh C1QL1 (11718748_at) / RFU TMPRSS4 (11747572_a_at) / Fold change /veh TMPRSS4 (11747572_a_at) / RFU HAMP (11756126_x_at) / Fold change /veh HAMP (11756126_x_at) / RFU RNFT2 (11725882_a_at) / Fold change /veh RNFT2 (11725882_a_at) / RFU NR4A2 (11747474_a_at) / Fold change /veh NR4A2 (11747474_a_at) / RFU ABCC12 (11746883_a_at) / Fold change /veh ABCC12 (11746883_a_at) / RFU TMEM136 (11760407_x_at) / Fold change /veh TMEM136 (11760407_x_at) / RFU CLDN22 /// WWC2 (11732394_at) / Fold change /veh CLDN22 /// WWC2 (11732394_at) / RFU HLA-DPB1 (11760878_x_at) / Fold change /veh HLA-DPB1 (11760878_x_at) / RFU SPINT1 (11716480_a_at) / Fold change /veh SPINT1 (11716480_a_at) / RFU GAP43 (11754022_s_at) / Fold change /veh GAP43 (11754022_s_at) / RFU A4GNT (11735810_at) / Fold change /veh A4GNT (11735810_at) / RFU PRB3 (11715151_x_at) / Fold change /veh PRB3 (11715151_x_at) / RFU TUBB4B (11761932_at) / Fold change /veh TUBB4B (11761932_at) / RFU CAPN14 (11732068_a_at) / Fold change /veh CAPN14 (11732068_a_at) / RFU TMCC2 (11721928_a_at) / Fold change /veh TMCC2 (11721928_a_at) / RFU IRGQ (11745062_a_at) / Fold change /veh IRGQ (11745062_a_at) / RFU FAM174B (11720279_a_at) / Fold change /veh FAM174B (11720279_a_at) / RFU TMPRSS4 (11748680_a_at) / Fold change /veh TMPRSS4 (11748680_a_at) / RFU FAM212B (11763350_a_at) / Fold change /veh FAM212B (11763350_a_at) / RFU PLEKHG5 (11743358_a_at) / Fold change /veh PLEKHG5 (11743358_a_at) / RFU ZSCAN30 (11745921_a_at) / Fold change /veh ZSCAN30 (11745921_a_at) / RFU CMKLR1 (11741424_a_at) / Fold change /veh CMKLR1 (11741424_a_at) / RFU LOC101060620 /// MAPK8IP1 (11723275_at) / Fold change /veh LOC101060620 /// MAPK8IP1 (11723275_at) / RFU SPTSSB (11747773_x_at) / Fold change /veh SPTSSB (11747773_x_at) / RFU PRSS12 (11739890_at) / Fold change /veh PRSS12 (11739890_at) / RFU BIN1 (11741810_x_at) / Fold change /veh BIN1 (11741810_x_at) / RFU WNT11 (11732464_a_at) / Fold change /veh WNT11 (11732464_a_at) / RFU C10orf10 (11716521_a_at) / Fold change /veh C10orf10 (11716521_a_at) / RFU C5orf56 (11738089_at) / Fold change /veh C5orf56 (11738089_at) / RFU CYB561 (11721691_x_at) / Fold change /veh CYB561 (11721691_x_at) / RFU ANKRD19P (11752326_a_at) / Fold change /veh ANKRD19P (11752326_a_at) / RFU OR2T12 /// OR2T33 /// OR2T8 (11738714_s_at) / Fold change /veh OR2T12 /// OR2T33 /// OR2T8 (11738714_s_at) / RFU VCAN (11748164_a_at) / Fold change /veh VCAN (11748164_a_at) / RFU JSRP1 (11732532_at) / Fold change /veh JSRP1 (11732532_at) / RFU KRTAP10-11 (11738290_x_at) / Fold change /veh KRTAP10-11 (11738290_x_at) / RFU MYO3A (11730013_a_at) / Fold change /veh MYO3A (11730013_a_at) / RFU EBF3 (11725865_a_at) / Fold change /veh EBF3 (11725865_a_at) / RFU CAMK2N1 (11719241_x_at) / Fold change /veh CAMK2N1 (11719241_x_at) / RFU C5orf56 (11738088_a_at) / Fold change /veh C5orf56 (11738088_a_at) / RFU OLFML3 (11715873_a_at) / Fold change /veh OLFML3 (11715873_a_at) / RFU LOC100653217 /// NTM (11731650_a_at) / Fold change /veh LOC100653217 /// NTM (11731650_a_at) / RFU MAPK11 (11762145_a_at) / Fold change /veh MAPK11 (11762145_a_at) / RFU FIZ1 (11724087_x_at) / Fold change /veh FIZ1 (11724087_x_at) / RFU OASL (11726364_x_at) / Fold change /veh OASL (11726364_x_at) / RFU SOX15 (11748057_x_at) / Fold change /veh SOX15 (11748057_x_at) / RFU CD79A (11719716_a_at) / Fold change /veh CD79A (11719716_a_at) / RFU HIST1H1D (11736915_at) / Fold change /veh HIST1H1D (11736915_at) / RFU CASKIN2 (11723855_a_at) / Fold change /veh CASKIN2 (11723855_a_at) / RFU LOC730098 (11760151_x_at) / Fold change /veh LOC730098 (11760151_x_at) / RFU OR4N2 (11742367_at) / Fold change /veh OR4N2 (11742367_at) / RFU PRRT2 (11749266_a_at) / Fold change /veh PRRT2 (11749266_a_at) / RFU SNX32 (11753110_a_at) / Fold change /veh SNX32 (11753110_a_at) / RFU CDHR5 (11726645_a_at) / Fold change /veh CDHR5 (11726645_a_at) / RFU RCAN1 (11760418_a_at) / Fold change /veh RCAN1 (11760418_a_at) / RFU FAM167A (11723789_a_at) / Fold change /veh FAM167A (11723789_a_at) / RFU FAM26E (11764081_at) / Fold change /veh FAM26E (11764081_at) / RFU ISYNA1 (11749810_s_at) / Fold change /veh ISYNA1 (11749810_s_at) / RFU ACY1 (11761880_at) / Fold change /veh ACY1 (11761880_at) / RFU 11764098_at / Fold change /veh 11764098_at / RFU SAMD14 (11745864_x_at) / Fold change /veh SAMD14 (11745864_x_at) / RFU NPB (11741838_a_at) / Fold change /veh NPB (11741838_a_at) / RFU TMPRSS6 (11731388_a_at) / Fold change /veh TMPRSS6 (11731388_a_at) / RFU KRTAP10-2 (11738614_at) / Fold change /veh KRTAP10-2 (11738614_at) / RFU ARHGAP8 /// PRR5-ARHGAP8 (11727945_x_at) / Fold change /veh ARHGAP8 /// PRR5-ARHGAP8 (11727945_x_at) / RFU KRTAP5-7 /// NADSYN1 (11734609_at) / Fold change /veh KRTAP5-7 /// NADSYN1 (11734609_at) / RFU RASL12 (11751679_a_at) / Fold change /veh RASL12 (11751679_a_at) / RFU CDKN2B (11736163_a_at) / Fold change /veh CDKN2B (11736163_a_at) / RFU PRF1 (11729649_at) / Fold change /veh PRF1 (11729649_at) / RFU, ZNF638 /// ZNF638-IT1 / Fold change vs veh, ZNF638 /// ZNF638-IT1 / RFU, PANK3 / Fold change vs veh, PANK3 / RFU, SH3YL1 / Fold change vs veh, SH3YL1 / RFU, ZEB2 / Fold change vs veh, ZEB2 / RFU, NRIP1 / Fold change vs veh, NRIP1 / RFU, PTTG1IP / Fold change vs veh, PTTG1IP / RFU, CAPN2 / Fold change vs veh, CAPN2 / RFU, MED14 / Fold change vs veh, MED14 / RFU, SNORA58 / Fold change vs veh, SNORA58 / RFU, C1orf63 / Fold change vs veh, C1orf63 / RFU, LRRFIP1 / Fold change vs veh, LRRFIP1 / RFU, NDUFAF7 / Fold change vs veh, NDUFAF7 / RFU, SLC12A2 / Fold change vs veh, SLC12A2 / RFU, IBTK / Fold change vs veh, IBTK / RFU, ESF1 / Fold change vs veh, ESF1 / Fold change vs veh, TMEM50B / RFU, TAOK1 / Fold change vs veh, TAOK1 / RFU, ACBD3 / Fold change vs veh, ACBD3 / RFU, TMA16 / Fold change vs veh, TMA16 / RFU, RWDD3 / Fold change vs veh, RWDD3 / RFU, BCAT1 / Fold change vs veh, BCAT1 / RFU, EDEM3 / Fold change vs veh, EDEM3 / RFU, TMEM33 / Fold change vs veh, TMEM33 / RFU, WDR75 / Fold change vs veh, WDR75 / RFU, AHCTF1 / Fold change vs veh, AHCTF1 / RFU, TFRC / Fold change vs veh, TFRC / RFU, ZDHHC17 / Fold change vs veh, ZDHHC17 / RFU, NOM1 / Fold change vs veh, NOM1 / RFU, ARL8B / Fold change vs veh, ARL8B / RFU, ZBTB11 / Fold change vs veh, ZBTB11 / RFU, TAMM41 / Fold change vs veh, TAMM41 / RFU, KIAA1704 /// LOC100996395 / Fold change vs veh, KIAA1704 /// LOC100996395 / RFU, ING1 / Fold change vs veh, ING1 / RFU, TRMT61B / Fold change vs veh, TRMT61B / RFU, FUBP3 / Fold change vs veh, FUBP3 / RFU, TP53 / Fold change vs veh, TP53 / RFU, TNKS2 / Fold change vs veh, TNKS2 / RFU, ZFP14 / Fold change vs veh, ZFP14 / RFU, ACTR2 / Fold change vs veh, ACTR2 / RFU, PPP3R1 / Fold change vs veh, PPP3R1 / RFU, PIK3R1 / Fold change vs veh, PIK3R1 / RFU, HNRNPA1 / Fold change vs veh, HNRNPA1 / RFU, RNF170 / Fold change vs veh, RNF170 / RFU, ZNF28 / Fold change vs veh, ZNF28 / RFU, RNGTT / Fold change vs veh, RNGTT / RFU, OGT / Fold change vs veh, OGT / RFU, BRD1 / Fold change vs veh, BRD1 / RFU, MARS / Fold change vs veh, MARS / RFU, ZNF655 / Fold change vs veh, ZNF655 / RFU, FAHD1 / Fold change vs veh, FAHD1 / RFU, BDP1 / Fold change vs veh, BDP1 / RFU, LRRCC1 / Fold change vs veh, LRRCC1 / RFU, ARID1A / Fold change vs veh, ARID1A / RFU, ZNF146 / Fold change vs veh, ZNF146 / RFU, ZNF330 / Fold change vs veh, ZNF330 / RFU, GPN3 / Fold change vs veh, GPN3 / RFU, C9orf123 / Fold change vs veh, C9orf123 / RFU, N4BP2L2 / Fold change vs veh, N4BP2L2 / RFU, ARFIP1 / Fold change vs veh, ARFIP1 / RFU, FAM179B / Fold change vs veh, FAM179B / RFU, BCL10 / Fold change vs veh, BCL10 / RFU, UHRF1BP1L / Fold change vs veh, UHRF1BP1L / RFU, BET1 / Fold change vs veh, BET1 / RFU, CNOT2 / Fold change vs veh, CNOT2 / RFU, ZNF268 / Fold change vs veh, ZNF268 / Fold change vs veh, ZNF507 / RFU, DGCR2 / Fold change vs veh, DGCR2 / RFU, WDSUB1 / Fold change vs veh, WDSUB1 / Fold change vs veh, HSP90B1 /// MIR3652 / RFU, ADSS / Fold change vs veh, ADSS / RFU, GK / Fold change vs veh, GK / RFU, ZNF148 / Fold change vs veh, ZNF148 / RFU, TAF9 / Fold change vs veh, TAF9 / RFU, SLC1A5 / Fold change vs veh, SLC1A5 / RFU, SLMO2 / Fold change vs veh, SLMO2 / RFU, ABCC4 / Fold change vs veh, ABCC4 / RFU, LOC101060439 /// RAP1B / Fold change vs veh, LOC101060439 /// RAP1B / RFU, RFX7 / Fold change vs veh, RFX7 / RFU, GTPBP10 / Fold change vs veh, GTPBP10 / RFU, CNEP1R1 / Fold change vs veh, CNEP1R1 / RFU, BIVM-ERCC5 /// ERCC5 / Fold change vs veh, BIVM-ERCC5 /// ERCC5 / RFU, ILF3 / Fold change vs veh, ILF3 / RFU 11762660_at / Fold change /veh 11762660_at / RFU VCAN (11757783_s_at) / Fold change /veh VCAN (11757783_s_at) / RFU DDX43 (11728927_at) / Fold change /veh DDX43 (11728927_at) / RFU KRT8 (11758188_x_at) / Fold change /veh KRT8 (11758188_x_at) / RFU NKD1 (11759106_at) / Fold change /veh NKD1 (11759106_at) / RFU SRD5A1 (11742802_a_at) / Fold change /veh SRD5A1 (11742802_a_at) / RFU TPSAB1 /// TPSB2 (11721975_s_at) / Fold change /veh TPSAB1 /// TPSB2 (11721975_s_at) / RFU GSTM3 (11746129_a_at) / Fold change /veh GSTM3 (11746129_a_at) / RFU IL23R (11737362_x_at) / Fold change /veh IL23R (11737362_x_at) / RFU TMEM51 (11727254_a_at) / Fold change /veh TMEM51 (11727254_a_at) / RFU PIWIL2 (11732686_x_at) / Fold change /veh PIWIL2 (11732686_x_at) / RFU ORM1 (11744905_x_at) / Fold change /veh ORM1 (11744905_x_at) / RFU CCDC152 (11743942_at) / Fold change /veh CCDC152 (11743942_at) / RFU ECM1 (11717891_a_at) / Fold change /veh ECM1 (11717891_a_at) / RFU IL23R (11748794_a_at) / Fold change /veh IL23R (11748794_a_at) / RFU TNFAIP8L3 (11732012_x_at) / Fold change /veh TNFAIP8L3 (11732012_x_at) / RFU MBOAT4 (11741988_at) / Fold change /veh MBOAT4 (11741988_at) / RFU 11764193_at / Fold change /veh 11764193_at / RFU TMEM53 (11763286_at) / Fold change /veh TMEM53 (11763286_at) / RFU MAGEB2 (11727129_at) / Fold change /veh MAGEB2 (11727129_at) / RFU TMEM200A (11744735_a_at) / Fold change /veh TMEM200A (11744735_a_at) / RFU CCDC152 (11751479_a_at) / Fold change /veh CCDC152 (11751479_a_at) / RFU FAM211A (11726209_a_at) / Fold change /veh FAM211A (11726209_a_at) / RFU RGS16 (11746705_a_at) / Fold change /veh RGS16 (11746705_a_at) / RFU VCAN (11755009_s_at) / Fold change /veh VCAN (11755009_s_at) / RFU RHOB (11743442_s_at) / Fold change /veh RHOB (11743442_s_at) / RFU RGS16 (11720943_a_at) / Fold change /veh RGS16 (11720943_a_at) / RFU RGS16 (11720944_at) / Fold change /veh RGS16 (11720944_at) / RFU, VPS4B / Fold change vs veh, VPS4B / RFU, CREB1 / Fold change vs veh, CREB1 / RFU, DNAJC13 / Fold change vs veh, DNAJC13 / RFU, GNAQ / Fold change vs veh, GNAQ / RFU, CDK5R1 / Fold change vs veh, CDK5R1 / RFU, ZRANB3 / Fold change vs veh, ZRANB3 / RFU, CUL4A / Fold change vs veh, CUL4A / RFU, CCNY / Fold change vs veh, CCNY / RFU, UFL1 / Fold change vs veh, UFL1 / RFU, COG3 / Fold change vs veh, COG3 / RFU, DIAPH2 / Fold change vs veh, DIAPH2 / RFU, SKA2 / Fold change vs veh, SKA2 / RFU, AFF3 / Fold change vs veh, AFF3 / RFU, LMF1 / Fold change vs veh, LMF1 / RFU, IPO11 / Fold change vs veh, IPO11 / RFU, DFFB / Fold change vs veh, DFFB / RFU, FOXP1 / Fold change vs veh, FOXP1 / RFU, CARD8 / Fold change vs veh, CARD8 / RFU, STRN3 / Fold change vs veh, STRN3 / RFU, ADK / Fold change vs veh, ADK / RFU, RASSF2 / Fold change vs veh, RASSF2 / RFU, WIPF1 / Fold change vs veh, WIPF1 / RFU, LARP1B / Fold change vs veh, LARP1B / RFU, RASA1 / Fold change vs veh, RASA1 / RFU, RB1 / Fold change vs veh, RB1 / RFU, PPFIA1 / Fold change vs veh, PPFIA1 / RFU, MAT2A / Fold change vs veh, MAT2A / RFU, CCT5 / Fold change vs veh, CCT5 / RFU, WDR92 / Fold change vs veh, WDR92 / RFU, CUX1 / Fold change vs veh, CUX1 / RFU, TTC7A / Fold change vs veh, TTC7A / RFU, TMEM135 / Fold change vs veh, TMEM135 / RFU, DEPTOR / Fold change vs veh, DEPTOR / RFU, CPM / Fold change vs veh, CPM / RFU, DNAJB6 / Fold change vs veh, DNAJB6 / RFU, CACNA2D3 / Fold change vs veh, CACNA2D3 / RFU, DTX4 / Fold change vs veh, DTX4 / RFU, TFCP2 / Fold change vs veh, TFCP2 / RFU, GMCL1 /// GMCL1P1 / Fold change vs veh, GMCL1 /// GMCL1P1 / RFU, AEBP2 / Fold change vs veh, AEBP2 / RFU, SNHG1 /// SNORD22 /// SNORD25 /// SNORD26 /// SNORD27 /// SNORD28 /// SNORD29 /// SNORD31 / Fold change vs veh, SNHG1 /// SNORD22 /// SNORD25 /// SNORD26 /// SNORD27 /// SNORD28 /// SNORD29 /// SNORD31 / Fold change (Aza/veh), C12orf56 (ProbeSet 11735607_a_at) / Fold change (ACY-1035/veh), C12orf56 (ProbeSet 11735607_a_at) / Fold change (Aza/veh), FGFR1OP (ProbeSet 11751329_s_at) / Fold change (ACY-1035/veh), FGFR1OP (ProbeSet 11751329_s_at) / Fold change (Aza/veh), VPS36 (ProbeSet 11739960_a_at) / Fold change (ACY-1035/veh), VPS36 (ProbeSet 11739960_a_at) / RFU SYPL1 (11715823_x_at) / Fold change /veh SYPL1 (11715823_x_at) / RFU IGFBP7 (11715501_s_at) / Fold change /veh IGFBP7 (11715501_s_at) / RFU REEP3 (11722064_at) / Fold change /veh REEP3 (11722064_at) / RFU IGLL1 (11728026_x_at) / Fold change /veh IGLL1 (11728026_x_at): dose or concentration left out as unconfirmed
Details: MV-4-11 cells, 48 hours

`Nc1ncn([C@@H]2O[C@H](CO)[C@@H](O)[C@H]2O)c(=O)n1` [azacitidine] was tested, and the “RFU PRSS12 (11739890_at)” value was 6.78 RFU.

— paper PMC5218480 (PLoS ONE, 2017)
